Reference: patent US20260373165A1, “PHARMACEUTICAL COMBINATIONS AND COMPOSITIONS, AND METHODS OF USE THEREOF” (SHENZHEN HIGHTIDE BIOPHARMACEUTICAL LTD., priority 2022, published 2026)
“Also recorded” adds a separate entry of the source.

Experiments:
[1] = Example 1: oral glucose tolerance test (OGTT), blood glucose; assay type: in vivo, mouse (C57BL/6J male, 60% HFD DIO); settings: for OGTT blood glucose level: HTD1801 200 mpk, empagliflozin 10 mpk (reduced after week 2), semaglutide 10 nmol/kg s.c. Q3D
Description: (§1) After 5-week-old C57BL/6J male mice were acclimatized for 1 week, the weight of each mouse was weighed, and the mice were randomly divided into a control group and a model group by taking the weight as a main index, where 12 mice in the control group were fed with common feed (CD), and the mice in the remaining model group were fed with 60% high-fat feed (60% HFD) for 10-12 weeks to construct a DIO obesity model, with the average body weight being not less than 40 g. The mice fed with 60% HFD were grabbed and acclimatized with a solvent for 3 days, where the acclimatization with a solvent was performed by oral gavage of 0.5% CMC-Na, twice daily.
(§2) The food intake, the body weight, the body fat ratio, and the insulin level of the mice were respectively measured, followed by fasting blood glucose level, and the mice were randomly grouped according to Table 3 by taking the body weight as an index, and the remaining ungrouped mice were euthanized. After grouping, each group of mice was administered according to Table 3, the day of administration was defined as DO, and the administration volume of each drug was determined based on the results obtained by the calculation of 5 μL/g× mouse body weight (g).
(§3) For the combined administration group, the total administration volume was the sum of the administration volumes of two single drugs, and the administration sequence and the administration time were kept consistent at each administration. The mice were continuously fed with high-fat feed during the administration period until the administration was finished. During administration, 2 food intakes were measured per week (difference in feed weights at an interval of 24 h was measured); each group of mice was weighed once daily; postprandial blood glucose levels were measured weekly; blood was collected from the tail tip on day 6 and day 20, respectively, so as to measure fasting blood glucose levels once (blood was collected after fasting from 8:00 am to […]); on day 25 of administration, the body fat ratio and the lean mass of each group of mice were measured by MRI (the measurement period was kept consistent with that before grouping); after 4 weeks of administration intervention (day 28), each group of mice was fasted for 6 h and subjected to OGTT (0 min, 15 min, 30 min, 60 min, 90 min, 120 min) to detect their blood glucose levels, and meanwhile subjected to blood sampling via submaxillary vein (0 min, 15 min, 30 min, about 30 μL of blood sampled each time), and then the blood plasma was separated for detecting the insulin level by ELISA, where the separated blood plasma was more than 10 μL; the next day (D29) at the end of administration was set as the test endpoint, and the mice were fasted for 6 h in the morning and subjected to fasting blood glucose level measurement; subsequently, the mice were euthanized with CO2, blood was collected from the heart of each mouse for analysis, and each group of mice was dissected; the liver and subcutaneous, epididymal and mesenteric fat was collected, photographed and weighed, respectively.

[2] = Example 1: body weight and body weight change rate, combined administration of HTD1801 and empagliflozin in DIO obesity model; assay type: in vivo, mouse (C57BL/6J male, 60% HFD DIO); settings: semaglutide 10 nmol/kg s.c. Q3D
Description: as §1, §2, §3

[3] = day 0 (baseline), HTD1801 300 mpk, empagliflozin 15 mpk gavage QD
[4] = day 1, HTD1801 300 mpk, empagliflozin 15 mpk gavage QD
[5] = day 2, HTD1801 300 mpk, empagliflozin 15 mpk gavage QD
[6] = day 3, HTD1801 300 mpk, empagliflozin 15 mpk gavage QD
[7] = day 4, HTD1801 300 mpk, empagliflozin 15 mpk gavage QD
[8] = day 5, HTD1801 300 mpk, empagliflozin 15 mpk gavage QD
[9] = day 6, HTD1801 300 mpk, empagliflozin 15 mpk gavage QD
[10] = day 7, HTD1801 300 mpk, empagliflozin 15 mpk gavage QD
[11] = day 8, HTD1801 300 mpk, empagliflozin 15 mpk gavage QD
[12] = day 9, HTD1801 300 mpk, empagliflozin 15 mpk gavage QD
[13] = day 10, HTD1801 300 mpk, empagliflozin 15 mpk gavage QD
[14] = day 11, HTD1801 300 mpk, empagliflozin 15 mpk gavage QD
[15] = day 12, HTD1801 300 mpk, empagliflozin 15 mpk gavage QD
[16] = day 13, HTD1801 300 mpk, empagliflozin 15 mpk gavage QD
[17] = day 14, HTD1801 300 mpk, empagliflozin 15 mpk gavage QD
[18] = day 15, HTD1801 200 mpk, empagliflozin 10 mpk (reduced after week 2) gavage QD
[19] = day 16, HTD1801 200 mpk, empagliflozin 10 mpk (reduced after week 2) gavage QD
[20] = day 17, HTD1801 200 mpk, empagliflozin 10 mpk (reduced after week 2) gavage QD
[21] = day 18, HTD1801 200 mpk, empagliflozin 10 mpk (reduced after week 2) gavage QD
[22] = day 19, HTD1801 200 mpk, empagliflozin 10 mpk (reduced after week 2) gavage QD
[23] = day 20, HTD1801 200 mpk, empagliflozin 10 mpk (reduced after week 2) gavage QD
[24] = day 21, HTD1801 200 mpk, empagliflozin 10 mpk (reduced after week 2) gavage QD
[25] = day 22, HTD1801 200 mpk, empagliflozin 10 mpk (reduced after week 2) gavage QD
[26] = day 23, HTD1801 200 mpk, empagliflozin 10 mpk (reduced after week 2) gavage QD
[27] = day 24, HTD1801 200 mpk, empagliflozin 10 mpk (reduced after week 2) gavage QD
[28] = day 25, HTD1801 200 mpk, empagliflozin 10 mpk (reduced after week 2) gavage QD
[29] = day 26, HTD1801 200 mpk, empagliflozin 10 mpk (reduced after week 2) gavage QD
[30] = day 27, HTD1801 200 mpk, empagliflozin 10 mpk (reduced after week 2) gavage QD
[31] = day 28, HTD1801 200 mpk, empagliflozin 10 mpk (reduced after week 2) gavage QD

SMILES: OC[C@H]1O[C@@H](c2ccc(Cl)c(Cc3ccc(O[C@H]4CCOC4)cc3)c2)[C@H](O)[C@@H](O)[C@@H]1O [Empagliflozin, empagliflozin]
- OGTT blood glucose level ([1]; day 28, 0 min): 10.97 mmol/L
- OGTT blood glucose level ([1]; day 28, 15 min): 19.60 mmol/L
- OGTT blood glucose level ([1]; day 28, 30 min): 18.90 mmol/L
- OGTT blood glucose level ([1]; day 28, 60 min): 18.18 mmol/L
- OGTT blood glucose level ([1]; day 28, 90 min): 14.54 mmol/L
- OGTT blood glucose level ([1]; day 28, 120 min (head printed "12 0min")): 15.48 mmol/L
- total blood glucose level in OGTT (in words) ([1]; day 28, relative to model control group G2): comparable
- body weight change (in words) ([2]; after 14 days, reduced dose: HTD1801 200 mpk, empagliflozin 10 mpk): slowly increased
- Body weight (mean) [2, 3]: 42.9 g
- Body weight change rate [2, 3]: 0.0%
- Body weight (mean) [2, 4]: 42.8 g
- Body weight change rate [2, 4]: −0.2%
- Body weight (mean) [2, 5]: 42.9 g
- Body weight change rate [2, 5]: 0.1%
- Body weight (mean) [2, 6]: 42.8 g
- Body weight change rate [2, 6]: −0.1%
- Body weight (mean) [2, 7]: 42.9 g
- Body weight change rate [2, 7]: 0.0%
- Body weight (mean) [2, 8]: 43.0 g
- Body weight change rate [2, 8]: 0.4%
- Body weight (mean) [2, 9]: 42.9 g
- Body weight change rate [2, 9]: 0.1%
- Body weight (mean) [2, 10]: 42.6 g
- Body weight change rate [2, 10]: −0.5%
- Body weight (mean) [2, 11]: 42.7 g
- Body weight change rate [2, 11]: −0.4%
- Body weight (mean) [2, 12]: 43.1 g
- Body weight change rate [2, 12]: 0.5%
- Body weight (mean) [2, 13]: 43.2 g
- Body weight change rate [2, 13]: 0.8%
- Body weight (mean) [2, 14]: 43.3 g
- Body weight change rate [2, 14]: 1.1%
- Body weight (mean) [2, 15]: 43.7 g
- Body weight change rate [2, 15]: 1.9%
- Body weight (mean) [2, 16]: 43.6 g
- Body weight change rate [2, 16]: 1.8%
- Body weight (mean) [2, 17]: 43.7 g
- Body weight change rate [2, 17]: 2.0%
- Body weight (mean) [2, 18]: 43.5 g
- Body weight change rate [2, 18]: 1.5%
- Body weight (mean) [2, 19]: 43.8 g
- Body weight change rate [2, 19]: 2.3%
- Body weight (mean) [2, 20]: 44.1 g
- Body weight change rate [2, 20]: 2.9%
- Body weight (mean) [2, 21]: 44.5 g
- Body weight change rate [2, 21]: 3.9%
- Body weight (mean) [2, 22]: 44.8 g
- Body weight change rate [2, 22]: 4.4%
- Body weight (mean) [2, 23]: 45.1 g
- Body weight change rate [2, 23]: 5.2%
- Body weight (mean) [2, 24]: 45.5 g
- Body weight change rate [2, 24]: 6.2%
- Body weight (mean) [2, 25]: 46.0 g
- Body weight change rate [2, 25]: 7.3%
- Body weight (mean) [2, 26]: 46.4 g
- Body weight change rate [2, 26]: 8.3%
- Body weight (mean) [2, 27]: 46.5 g
- Body weight change rate [2, 27]: 8.5%
- Body weight (mean) [2, 28]: 46.5 g
- Body weight change rate [2, 28]: 8.4%
- Body weight (mean) [2, 29]: 46.3 g
- Body weight change rate [2, 29]: 8.1%
- Body weight (mean) [2, 30]: 46.7 g
- Body weight change rate [2, 30]: 8.9%
- Body weight (mean) [2, 31]: 46.5 g
- Body weight change rate [2, 31]: 8.4%
- body weight change / weight loss effect (in words) ([2]; within 14 days, HTD1801 300 mpk, empagliflozin 15 mpk gavage QD): basically unchanged in week 1 and gradually increased; also recorded: could not achieve the weight loss effect
